Tests used:
[1] = tested on: rumen fermentation (strained rumen fluid); test: Rumen in vitro model; design: species or system steer; conditions: for AAN (alpha amino nitrogen) / AMO (ammonia nitrogen) / LYS (lysine): 6 h; for % PR (percent propionate) / ACE (acetate) / BUT (butyrate) / ETOH (ethanol) / IBU (isobutyrate) / IVA (isovalerate) / PRO (propionate) / TOTAL (total volatile fatty acids) / VAL: 24 h
Protocol: The AAD-609 antibiotics were characterized in a rumen in vitro model to assess their potential as feed additives for ruminants. […] Specifically, strained rumen fluid (10 ml) obtained from a fistulated steer receiving a roughage ration, was mixed with 10 ml of nutrient broth (20 mg casein hydrolysate, 100 mg maltose, 15 mg urea, 400 mg solka floc (cellulose), 100 mg cellobiose and 100 mg starch) and with a selected growth promotant and incubated at 39° C., with oscillation, for 24 hours. […] Measurement of AMO, LYS and AAN was done with a sample taken from the incubation flask after 6 hours.

[2] = tested on: mixed intestinal microflora (cecum fluid); test: Swine in vitro model; conditions: one level, up to 166.67 ppm; 4-5 h
Protocol: A swine in vitro model was used to characterize AAD-609 antibiotics as potential feed additives in swine and poultry. Mixed intestinal microflora were obtained from ileally-cannulated pigs. Virginiamycin, carbadox, AAD-216 and its components, and AAD-609 Complex (containing less than 5% AAD-216 antibiotics) were tested at one level. […] Glucose (GLU) was spared from microbial degradation. Volatile fatty acids (TOTAL) were the major end-product of microbial metabolism while lactic acid production were reduced. […] Since AAD-609 and AAD-216 give similar in vitro results, it is expected that AAD-609 has similar growth-promoting activity in monogastric animals. Also, the in vitro activity of AAD-609 is similar to the activity previously observed with bacitracin in this model.
The swine in vitro model was carried out by incubating 1.5 ml of cecum fluid, from a swine fed normal rations, mixed with 1.5 ml of a nutrient broth (3 mg casein hydrolysate, 30 mg maltose, 1.25 mg urea, 0.5 mg lysine, and 30 mg cellobiose) and with up to 166.67 parts per million of a selected growth promotant at 39° C., with oscillation, for about 4-5 hours. Results, percentage of control, are reported in the following table in which all abbreviations are as above except that LLA means L-lactate and ETOH means ethanol.

[3] = tested on: SK&F-AAD-609; test: Susceptibility of SK&F-AAD-609 to antibiotics (diffusion method, BBL susceptibility disks); assay type: cell-based, Kibdelosporangium aridum subsp. largum; conditions: 28° C., one week
Protocol: Susceptibility of SK&F-AAD-609 to antibiotics was examined by placing BBL susceptibility disks on nutrient agar plates seeded with SK&F-ADD-609 as an agar overlay. Plates were placed at 4° C. for one hour to permit diffusion of the anitbiotics and, subsequently, incubated at 28° C. Diameters of the zones of inhibition were measured after incubation for one week.
Susceptibility to Antibiotics. […] Chlortetracycline (5 μg) produced 17-18 mm zones of inhibition; tetracycline (5 μg) 9-12 mm zones; rifampin (5 μg) 10-12 mm zones; novobiocin (5 μg) 30-35 mm zones. All zones of inhibition contained at least a few resistant colonies.

For CNC1C(=O)NC2C(=O)NC(C(=O)NC3C(=O)NC4C(=O)NC(C(=O)NC(C(=O)O)c5cc(O)cc(OC6OC(CO)C(O)C(O)C6O)c5-c5cc4ccc5O)C(O)c4cc(Cl)c(c(Cl)c4)Oc4cc3cc(c4OC3OC(C(=O)O)C(O)C(O)C3NC(=O)CCCCCCCC(C)C)Oc3ccc(cc3Cl)C2O)c2cc(cc(O)c2Cl)Oc2cc1ccc2O (stereo not drawn) [AAD-216 B], the “AAN (alpha amino nitrogen)” value ([1]; 0.50 ppm) was 121 % of control, the “AMO (ammonia nitrogen)” value ([1]; 0.50 ppm) was 96 % of control and the “LYS (lysine)” value ([1]; 0.50 ppm) was 96 % of control. The “% PR (percent propionate)” value ([1]; 0.50 ppm) was 104 % of control, the “ACE (acetate)” value ([1]; 0.50 ppm) was 107 % of control and the “BUT (butyrate)” value ([1]; 0.50 ppm) was 97 % of control. The “ETOH (ethanol)” value ([1]; 0.50 ppm) was 0 % of control, the “IBU (isobutyrate)” value ([1]; 0.50 ppm) was 108 % of control and the “IVA (isovalerate)” value ([1]; 0.50 ppm) was 94 % of control. For the same compound, the “PRO (propionate)” value ([1]; 0.50 ppm) was 108 % of control, the “TOTAL (total volatile fatty acids)” value ([1]; 0.50 ppm) was 103 % of control and the VAL ([1]; 0.50 ppm) was 101 % of control. The “AAN (alpha amino nitrogen)” value ([1]; 5.00 ppm) was 140 % of control, the “AMO (ammonia nitrogen)” value ([1]; 5.00 ppm) was 93 % of control and the “LYS (lysine)” value ([1]; 5.00 ppm) was 120 % of control. The “% PR (percent propionate)” value ([1]; 5.00 ppm) was 141 % of control, the “ACE (acetate)” value ([1]; 5.00 ppm) was 106 % of control and the “BUT (butyrate)” value ([1]; 5.00 ppm) was 88 % of control. The “ETOH (ethanol)” value ([1]; 5.00 ppm) was 0 % of control, the “IBU (isobutyrate)” value ([1]; 5.00 ppm) was 95 % of control and the “IVA (isovalerate)” value ([1]; 5.00 ppm) was 67 % of control. For the same compound, the “PRO (propionate)” value ([1]; 5.00 ppm) was 153 % of control, the “TOTAL (total volatile fatty acids)” value ([1]; 5.00 ppm) was 108 % of control and the VAL ([1]; 5.00 ppm) was 86 % of control. The “AAN (alpha amino nitrogen)” value ([1]; 50.00 ppm) was 178 % of control, the “AMO (ammonia nitrogen)” value ([1]; 50.00 ppm) was 107 % of control and the “LYS (lysine)” value ([1]; 50.00 ppm) was 132 % of control. For the same compound, the “% PR (percent propionate)” value ([1]; 50.00 ppm) was 144 % of control, the “ACE (acetate)” value ([1]; 50.00 ppm) was 103 % of control and the “BUT (butyrate)” value ([1]; 50.00 ppm) was 98 % of control. For the same compound, the “ETOH (ethanol)” value ([1]; 50.00 ppm) was 0 % of control, the “IBU (isobutyrate)” value ([1]; 50.00 ppm) was 123 % of control and the “IVA (isovalerate)” value ([1]; 50.00 ppm) was 111 % of control. The “PRO (propionate)” value ([1]; 50.00 ppm) was 159 % of control, the “TOTAL (total volatile fatty acids)” value ([1]; 50.00 ppm) was 110 % of control and the VAL ([1]; 50.00 ppm) was 28 % of control. For the same compound, the “% PR (percent propionate)” value [2] was 119 % of control, the “ACE (acetate)” value [2] was 217 % of control and the “BUT (butyrate)” value [2] was 154 % of control. The “ETOH (ethanol)” value [2] was 104 % of control, the “GLU (glucose)” value [2] was 180 % of control and the “IBU (isobutyrate)” value [2] was 0 % of control. The “IVA (isovalerate)” value [2] was 0 % of control, the “LLA (L-lactate)” value [2] was 2 % of control and the “LYS (lysine)” value [2] was 25 % of control. For the same compound, the “PRO (propionate)” value [2] was 305 % of control, the “TOTAL (total volatile fatty acids)” value [2] was 257 % of control and the VAL [2] was 0 % of control.
For CNC1C(=O)NC2C(=O)NC(C(=O)NC3C(=O)NC4C(=O)NC(C(=O)NC(C(=O)O)c5cc(O)cc(OC6OC(CO)C(O)C(O)C6O)c5-c5cc4ccc5O)C(O)c4cc(Cl)c(c(Cl)c4)Oc4cc3cc(c4OC3OC(C(=O)O)C(O)C(O)C3NC(=O)CCCCCCCCC(C)C)Oc3ccc(cc3Cl)C2O)c2cc(cc(O)c2Cl)Oc2cc1ccc2O (stereo not drawn) [AAD-216 C], the “AAN (alpha amino nitrogen)” value ([1]; 0.50 ppm) was 96 % of control, the “AMO (ammonia nitrogen)” value ([1]; 0.50 ppm) was 99 % of control and the “LYS (lysine)” value ([1]; 0.50 ppm) was 78 % of control. For the same compound, the “% PR (percent propionate)” value ([1]; 0.50 ppm) was 105 % of control, the “ACE (acetate)” value ([1]; 0.50 ppm) was 94 % of control and the “BUT (butyrate)” value ([1]; 0.50 ppm) was 101 % of control. The “ETOH (ethanol)” value ([1]; 0.50 ppm) was 0 % of control, the “IBU (isobutyrate)” value ([1]; 0.50 ppm) was 123 % of control and the “IVA (isovalerate)” value ([1]; 0.50 ppm) was 123 % of control. For the same compound, the “PRO (propionate)” value ([1]; 0.50 ppm) was 105 % of control, the “TOTAL (total volatile fatty acids)” value ([1]; 0.50 ppm) was 100 % of control and the VAL ([1]; 0.50 ppm) was 102 % of control. For the same compound, the “AAN (alpha amino nitrogen)” value ([1]; 5.00 ppm) was 136 % of control, the “AMO (ammonia nitrogen)” value ([1]; 5.00 ppm) was 98 % of control and the “LYS (lysine)” value ([1]; 5.00 ppm) was 102 % of control. For the same compound, the “% PR (percent propionate)” value ([1]; 5.00 ppm) was 148 % of control, the “ACE (acetate)” value ([1]; 5.00 ppm) was 96 % of control and the “BUT (butyrate)” value ([1]; 5.00 ppm) was 83 % of control. The “ETOH (ethanol)” value ([1]; 5.00 ppm) was 0 % of control, the “IBU (isobutyrate)” value ([1]; 5.00 ppm) was 86 % of control and the “IVA (isovalerate)” value ([1]; 5.00 ppm) was 56 % of control. For the same compound, the “PRO (propionate)” value ([1]; 5.00 ppm) was 148 % of control, the “TOTAL (total volatile fatty acids)” value ([1]; 5.00 ppm) was 100 % of control and the VAL ([1]; 5.00 ppm) was 51 % of control. For the same compound, the “AAN (alpha amino nitrogen)” value ([1]; 50.00 ppm) was 166 % of control, the “AMO (ammonia nitrogen)” value ([1]; 50.00 ppm) was 106 % of control and the “LYS (lysine)” value ([1]; 50.00 ppm) was 144 % of control. The “% PR (percent propionate)” value ([1]; 50.00 ppm) was 149 % of control, the “ACE (acetate)” value ([1]; 50.00 ppm) was 98 % of control and the “BUT (butyrate)” value ([1]; 50.00 ppm) was 88 % of control. For the same compound, the “ETOH (ethanol)” value ([1]; 50.00 ppm) was 0 % of control, the “IBU (isobutyrate)” value ([1]; 50.00 ppm) was 111 % of control and the “IVA (isovalerate)” value ([1]; 50.00 ppm) was 87 % of control. For the same compound, the “PRO (propionate)” value ([1]; 50.00 ppm) was 154 % of control, the “TOTAL (total volatile fatty acids)” value ([1]; 50.00 ppm) was 104 % of control and the VAL ([1]; 50.00 ppm) was 30 % of control. The “% PR (percent propionate)” value [2] was 127 % of control, the “ACE (acetate)” value [2] was 175 % of control and the “BUT (butyrate)” value [2] was 105 % of control. The “ETOH (ethanol)” value [2] was 0 % of control, the “GLU (glucose)” value [2] was 181 % of control and the “IBU (isobutyrate)” value [2] was 0 % of control. The “IVA (isovalerate)” value [2] was 0 % of control, the “LLA (L-lactate)” value [2] was 2 % of control and the “LYS (lysine)” value [2] was 29 % of control. For the same compound, the “PRO (propionate)” value [2] was 281 % of control, the “TOTAL (total volatile fatty acids)” value [2] was 221 % of control and the VAL [2] was 0 % of control.
For CN(C)[C@@H]1C(O)=C(C(N)=O)C(=O)[C@@]2(O)C(O)=C3C(=O)c4c(O)ccc(Cl)c4[C@@](C)(O)[C@H]3C[C@@H]12 [Chlortetracycline], the “Zone of inhibition (diameter)” value ([3]; disk 5 μg) was 17-18 mm.
With CC1(C)S[C@@H]2[C@H](NC(=O)[C@H](N)c3ccccc3)C(=O)N2[C@H]1C(=O)O [ampicillin] the “Susceptibility (diffusion method)” value ([3]; disk 10 μg) was “resistant”.
CC(=O)OCC1=C(C(=O)O)N2C(=O)[C@@H](NC(=O)Cc3cccs3)[C@H]2SC1 [cephalothin] was tested, and the “Susceptibility (diffusion method)” value ([3]; disk 30 μg) was “resistant”.
For O=C(N[C@H](CO)[C@H](O)c1ccc([N+](=O)[O-])cc1)C(Cl)Cl [chloramphenicol], the “Susceptibility (diffusion method)” value ([3]; disk 5 μg) was “resistant”.
For CCC[C@@H]1C[C@@H](C(=O)N[C@@H]([C@H]2O[C@H](SC)[C@H](O)[C@@H](O)[C@H]2O)[C@@H](C)O)N(C)C1 [lincomycin], the “Susceptibility (diffusion method)” value ([3]; disk 2 μg) was “resistant”.
For CO[C@@H]1[C@@H](OC(N)=O)[C@@H](O)[C@H](Oc2ccc3c(O)c(NC(=O)c4ccc(O)c(CC=C(C)C)c4)c(=O)oc3c2C)OC1(C)C [novobiocin], the “Zone of inhibition (diameter)” value ([3]; disk 5 μg) was 30-35 mm.
For CC1(C)S[C@@H]2[C@H](NC(=O)Cc3ccccc3)C(=O)N2[C@H]1C(=O)O [penicillin], the “Susceptibility (diffusion method)” value ([3]; disk 10 units) was “resistant”.
With CO[C@H]1/C=C/O[C@@]2(C)Oc3c(C)c(O)c4c(O)c(c(/C=N/N5CCN(C)CC5)c(O)c4c3C2=O)NC(=O)/C(C)=C\C=C\[C@H](C)[C@H](O)[C@@H](C)[C@@H](O)[C@@H](C)[C@H](OC(C)=O)[C@@H]1C [rifampin] the “Zone of inhibition (diameter)” value ([3]; disk 5 μg) was 10-12 mm.
[H]/N=C(/N)N[C@H]1[C@H](O)[C@@H](O)[C@H](O[C@@H]2O[C@@H](C)[C@](O)(C=O)[C@H]2O[C@@H]2O[C@@H](CO)[C@H](O)[C@@H](O)[C@@H]2NC)[C@@H](N/C(N)=N\[H])[C@@H]1O [streptomycin] was tested, and the “Susceptibility (diffusion method)” value ([3]; disk 10 μg) was “resistant”.
